Reference: patent US20120283216A1, “FUNGICIDAL 2-(BICYCLIC ARYLOXY)CARBOXAMIDES” (priority 2009, published 2012)

Legend:
Assay type in all cases: in vivo
Septoria tritici = test: Test B: wheat leaf blotch, preventive spray on wheat seedlings, visual disease rating; conditions: preventive spray at 40 ppm, rated after 48 h + 19 days; for pest or weed control at 40 ppm: Zymoseptoria tritici, 504 h, read-out: Test B disease control rating (100 = 100% disease control, 0 = no disease control relative to the controls)
Description: (§1) General protocol for preparing test suspensions for Tests A-C: the test compounds were first dissolved in acetone in an amount equal to 11% of the final volume and then suspended at the desired concentration (in ppm) in acetone and purified water (50/50 mix by volume) containing 250 ppm of the surfactant Trem® 014 (polyhydric alcohol esters). The resulting test suspensions were then used in Tests A-C. Spraying a 40 ppm test suspension to the point of run-off on the test plants was the equivalent of a rate of 800 g/ha. The test suspension was sprayed to the point of run-off on wheat seedlings. The following day the seedlings were inoculated with a spore suspension of Septoria tritici (the causal agent of wheat leaf blotch) and incubated in a saturated atmosphere at 20° C. for 48 h, and then moved to a growth chamber at 20° C. for 19 days, after which time disease ratings were visually made. Results for Tests A-C are given in Table A. In the Table, a rating of 100 indicates 100% disease control and a rating of 0 indicates no disease control (relative to the controls). A dash (-) indicates no test results. All results are from applications of 40 ppm.

[1] = test system: Blumeria graminis f. sp. tritici; test: Test A: wheat powdery mildew, preventive spray on wheat seedlings, visual disease rating; conditions: preventive spray at 40 ppm, rated 8 days after inoculation; for pest or weed control at 40 ppm: Blumeria graminis, 192 h, read-out: Test A disease control rating (100 = 100% disease control, 0 = no disease control relative to the controls)
Description: as §1, with “spore dust” for “spore suspension”, “of Blumeria graminis f. sp. tritici,” for “of Septoria tritici”, “wheat powdery mildew)” for “wheat leaf blotch)”, “in” for “in a saturated atmosphere at 20° C. for 48 h, and then moved to”, “for 8” for “for 19”

Botrytis cinerea = test: Test C: tomato botrytis, preventive spray on tomato seedlings, visual disease rating; conditions: preventive spray at 40 ppm, rated after 48 h + 3 days; for pest or weed control at 40 ppm: Botrytis cinerea, 120 h, read-out: Test C disease control rating (100 = 100% disease control, 0 = no disease control relative to the controls)
Description: General protocol for preparing test suspensions for Tests A-C: the test compounds were first dissolved in acetone in an amount equal to 11% of the final volume and then suspended at the desired concentration (in ppm) in acetone and purified water (50/50 mix by volume) containing 250 ppm of the surfactant Trem® 014 (polyhydric alcohol esters). The resulting test suspensions were then used in Tests A-C. Spraying a 40 ppm test suspension to the point of run-off on the test plants was the equivalent of a rate of 800 g/ha.
The test suspension was sprayed to the point of run-off on tomato seedlings. The following day the seedlings were inoculated with a spore suspension of Botrytis cinerea (the causal agent of tomato botrytis) and incubated in saturated atmosphere at 20° C. for 48 h, and then moved to a growth chamber at 27° C. for 3 additional days, after which time disease ratings were visually made.
Results for Tests A-C are given in Table A. In the Table, a rating of 100 indicates 100% disease control and a rating of 0 indicates no disease control (relative to the controls). A dash (-) indicates no test results. All results are from applications of 40 ppm.

Compound	Test B disease control rating (100 = 100% disease control, 0 = no disease control relative to the controls) (Septoria tritici)	Test A disease control rating (100 = 100% disease control, 0 = no disease control relative to the controls) [1]	Test C disease control rating (100 = 100% disease control, 0 = no disease control relative to the controls) (Botrytis cinerea)	pest or weed control at 40 ppm (Septoria tritici)	pest or weed control at 40 ppm [1]	pest or weed control at 40 ppm (Botrytis cinerea)
CCC(Oc1ccc2ccc(C#C[Si](C)(C)C)cc2c1)C(=O)NC(C)(C)COC (stereo not drawn) [Compound 96]	100%	0%	99%	–	–	–
C#Cc1ccc2ncc(OC(CC)C(=O)NC(C)(C)CC)cc2c1 (stereo not drawn) [Compound 150]	100%	96%	97%	–	–	–
COCC(C)(C)NC(=O)C(OC)Oc1ccc2ccc(C#C[Si](C)(C)C)cc2c1 (stereo not drawn) [Compound 105]	100%	79%	90%	–	–	–
CCC(Oc1ccc2ccc(Br)cc2c1)C(=O)NC(C)(C)COP(C)(C)=O (stereo not drawn) [Compound 10]	99%	21%	98%	–	–	–
CCOc1ccc2ccc(OC(CC)C(=O)NC(C)(C)C)cc2c1 (stereo not drawn) [Compound 74, N-(1,1-dimethylethyl)-2-[(7-ethoxy-2-naphthalenyl)oxy]butanamide]	–	–	–	100%	100%	100%
CCOc1ccc2ccc(OC(OCC)C(=O)NC(C)(C)C)cc2c1 (stereo not drawn) [Compound 121]	–	–	–	100%	29%	99%
CCC(Oc1ccc2ccc(O)cc2c1)C(=O)NC(C)(C)C (stereo not drawn) [Compound 89]	–	–	–	63%	0%	86%
CCOCC(C)(C)NC(=O)C(CC)Oc1cnc2ccc(I)cc2c1 (stereo not drawn) [Compound 55]	99%	96%	86%	–	–	–
CCC(Oc1cnc2ccc(Br)cc2c1)C(=O)NC(C)(C)COCOC (stereo not drawn) [Compound 58]	100%	99%	99%	–	–	–
C#Cc1ccc2ncc(OC(OC)C(=O)NC(C)(C)C)cc2c1 (stereo not drawn) [Compound 163]	100%	99%	100%	–	–	–
CCC(Oc1ccc2ccc(Br)cc2c1)C(=O)NC(C)(C)C=O (stereo not drawn) [Compound 17]	100%	89%	99%	–	–	–
C#CC(C)(C)NC(=O)C(CC)Oc1cnc2ccc(Cl)cc2c1 (stereo not drawn) [Compound 41]	96%	0%	96%	–	–	–
CCC(Oc1ccc2ccc(Br)cc2c1)C(=O)NC(C)(C)CSC(C)=O (stereo not drawn) [Compound 28]	99%	91%	99%	–	–	–
CCOC(Oc1ccc2ccc(OC)cc2c1)C(=O)NC(C)(C)CC (stereo not drawn) [Compound 117]	93%	0%	98%	–	–	–
CC#CC(C)(C)NC(=O)C(CC)Oc1ccc2ccc(CC)cc2c1 (stereo not drawn) [Compound 142]	77%	96%	93%	–	–	–
COCC(C)(C)NC(=O)C(C)Oc1ccc2ccc(C#N)cc2c1 (stereo not drawn) [Compound 25]	96%	47%	99%	–	–	–
CCC(Oc1ccc2ccc(C#N)cc2c1)C(=O)NC(C)(C)C (stereo not drawn) [Compound 33]	–	–	–	99%	62%	95%
CCC(Oc1ccc2ccc(Br)cc2c1)C(=O)NC(C)(C)CNC=O (stereo not drawn) [Compound 11]	99%	21%	100%	–	–	–
C#CC(C)(C)NC(=O)C(CC)Oc1ccc2ccc(OC(F)F)cc2c1 (stereo not drawn) [Compound 6]	100%	98%	100%	–	–	–
CCC(Oc1cnc2ccc(F)cc2c1)C(=O)NC(C)(C)C (stereo not drawn) [Compound 45]	–	–	–	42%	84%	98%
C#Cc1ccc2ccc(OC(CC)C(=O)NC(C)(C)C#CC)cc2c1 (stereo not drawn) [Compound 111, N-(1,1-dimethyl-2-butyn-1-yl)-2-[(7-ethynyl-2-naphthalenyl)oxy]butanamide]	–	–	–	100%	100%	100%
CCC(Oc1ccc2ccc(SC)cc2c1)C(=O)NC(C)(C)COC (stereo not drawn) [Compound 91]	100%	97%	100%	–	–	–
CCOc1ccc2ccc(OC(OCC)C(=O)NC(C)(C)C#N)cc2c1 (stereo not drawn) [Compound 123]	100%	82%	98%	–	–	–
CCC(Oc1cnc2ccc(I)cc2c1)C(=O)NC(C)(C)CO (stereo not drawn) [Compound 52]	45%	0%	82%	–	–	–
C#CC(C)(C)NC(=O)C(CC)Oc1ccc2ccc(OC)cc2c1 (stereo not drawn) [Compound 4]	100%	97%	100%	–	–	–
CC#Cc1ccc2ncc(OC(OC)C(=O)NC(C)(C)C)cc2c1 (stereo not drawn) [Compound 156, N-(1,1-dimethylethyl)-2-methoxy-2-[[6-(1-propyn-1-yl)-3-quinolinyl]oxy]-acetamide]	–	–	–	96%	98%	99%
